{"source": "patent US11643411B2", "about": "(priority 2015, dated 2023)", "key": {"[1]": {"target": "T1, human opioid μ receptor (Homo sapiens, UniProt P35372)", "T1 construct": "host or cells: CHO cells", "T1 sequence (P35372 whole entry)": "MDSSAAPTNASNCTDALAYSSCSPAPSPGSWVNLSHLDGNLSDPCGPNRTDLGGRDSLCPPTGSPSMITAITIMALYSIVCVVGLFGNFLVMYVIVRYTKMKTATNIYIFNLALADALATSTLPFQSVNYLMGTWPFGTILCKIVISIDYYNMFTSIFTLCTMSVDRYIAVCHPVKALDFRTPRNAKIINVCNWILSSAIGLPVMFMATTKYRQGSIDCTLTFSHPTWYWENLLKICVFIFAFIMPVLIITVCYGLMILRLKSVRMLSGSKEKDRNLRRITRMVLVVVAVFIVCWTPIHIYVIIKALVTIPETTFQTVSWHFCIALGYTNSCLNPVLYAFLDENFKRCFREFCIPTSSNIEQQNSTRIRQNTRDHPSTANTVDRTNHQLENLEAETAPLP", "test": "Opioid receptor function test (Lance Ultra cAMP Kit), μ receptor", "assay_type": "cell-based"}, "[2]": {"target": "T2, hERG channel (Homo sapiens, UniProt Q12809)", "T2 construct": "host or cells: CHO cells", "T2 sequence (Q12809 whole entry)": "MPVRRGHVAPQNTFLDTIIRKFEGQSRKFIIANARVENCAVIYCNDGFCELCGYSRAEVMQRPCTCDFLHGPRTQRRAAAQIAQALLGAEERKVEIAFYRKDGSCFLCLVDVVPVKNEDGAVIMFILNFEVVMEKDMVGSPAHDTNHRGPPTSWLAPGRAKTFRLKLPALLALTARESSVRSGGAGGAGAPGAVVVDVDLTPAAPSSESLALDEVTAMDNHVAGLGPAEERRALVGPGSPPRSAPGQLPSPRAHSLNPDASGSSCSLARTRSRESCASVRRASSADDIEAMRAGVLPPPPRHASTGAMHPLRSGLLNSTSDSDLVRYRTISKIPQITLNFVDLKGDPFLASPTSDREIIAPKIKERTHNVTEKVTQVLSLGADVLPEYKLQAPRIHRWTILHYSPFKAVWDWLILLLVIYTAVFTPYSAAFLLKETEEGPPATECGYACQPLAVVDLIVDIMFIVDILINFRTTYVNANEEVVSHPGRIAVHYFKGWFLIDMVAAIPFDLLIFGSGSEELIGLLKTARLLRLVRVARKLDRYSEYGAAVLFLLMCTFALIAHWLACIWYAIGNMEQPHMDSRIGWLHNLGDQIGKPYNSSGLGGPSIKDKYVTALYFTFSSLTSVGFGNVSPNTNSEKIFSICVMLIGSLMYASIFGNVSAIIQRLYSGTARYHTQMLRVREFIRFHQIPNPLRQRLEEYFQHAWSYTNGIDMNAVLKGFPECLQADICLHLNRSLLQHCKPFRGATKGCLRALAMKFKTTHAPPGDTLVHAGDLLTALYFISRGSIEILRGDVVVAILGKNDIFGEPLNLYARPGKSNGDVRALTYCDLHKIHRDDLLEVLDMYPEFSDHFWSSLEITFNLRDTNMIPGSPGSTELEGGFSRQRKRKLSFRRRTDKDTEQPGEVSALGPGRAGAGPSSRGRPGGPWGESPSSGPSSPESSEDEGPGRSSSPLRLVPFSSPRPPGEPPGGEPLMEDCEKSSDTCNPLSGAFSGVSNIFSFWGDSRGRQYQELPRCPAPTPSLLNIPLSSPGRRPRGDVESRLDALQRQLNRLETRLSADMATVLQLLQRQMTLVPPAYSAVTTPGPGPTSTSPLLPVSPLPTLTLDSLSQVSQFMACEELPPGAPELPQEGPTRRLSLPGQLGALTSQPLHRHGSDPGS", "test": "hERG potassium channel inhibition test (automatic patch clamp)", "assay_type": "cell-based", "settings": "10 μM, hERG channel-stably expressing CHO cells, tail current", "description": "The test was performed with Port-a-Patch automatic patch clump apparatus (Nanion Technologies) using hERG channel-stably expressing CHO cells (purchased from Channelopathy Foundation). The membrane potential of the cells was maintained at −80 mV, then there were applied a depolarization pulse at +20 mV for 1.5 seconds, and a following test pulse at −50 mV for 1.5 seconds at a frequency of 1 time per 10 seconds, and the hERG current was confirmed as a tail current induced by the test pulse. The test compound was dissolved in an extracellular fluid (137 mM NaCl, 4 mM KCl, 1.8 mM CaCl2, 1 mM MgCl2, 10 mM D(+)-glucose, 10 mM HEPES, pH 7.4), and the solution was refluxed at room temperature for 5 minutes. The inhibition ratio was obtained from the ratio of the tail current value observed after the compound was applied based on the tail current value observed before the compound was applied, which was taken as 100%."}, "[3]": {"system": "C57BL/6N male mice", "test": "Mouse elevated plus maze test", "assay_type": "in vivo", "settings": "subcutaneous, dose not stated (FIGS. 3 to 5)", "description": "For the test, 5 to 6 weeks old C57BL/6N male mice were used. On a plus maze apparatus consisting of a wall-less running route (open arm, width 6 cm, length 30 cm) and a running route with a wall (closed arm, width 6 cm, length 30 cm, height of wall 15 cm), and having a height of 40 cm, a mouse was put so as to be directed to the running route with a wall, and allowed to spontaneously enter into the plus maze. Each test substance was dissolved in saline or 0.005 N HCl in saline, and subcutaneously administered on the back 30 minutes before the start of the test. At the time of the start of the test, video recording with a video camera was started, the time at which the mouse entered into the plus maze is considered to be the start of the test, and exploratory behavior was recorded for 5 minutes. On the basis of the video image, staying time in the running routes were determined, and wall-less running route staying time ratio (%) was calculated."}, "[4]": {"target": "T3, human opioid κ receptor (Homo sapiens, UniProt P41145)", "T3 construct": "host or cells: CHO cells", "T3 sequence (P41145 whole entry)": "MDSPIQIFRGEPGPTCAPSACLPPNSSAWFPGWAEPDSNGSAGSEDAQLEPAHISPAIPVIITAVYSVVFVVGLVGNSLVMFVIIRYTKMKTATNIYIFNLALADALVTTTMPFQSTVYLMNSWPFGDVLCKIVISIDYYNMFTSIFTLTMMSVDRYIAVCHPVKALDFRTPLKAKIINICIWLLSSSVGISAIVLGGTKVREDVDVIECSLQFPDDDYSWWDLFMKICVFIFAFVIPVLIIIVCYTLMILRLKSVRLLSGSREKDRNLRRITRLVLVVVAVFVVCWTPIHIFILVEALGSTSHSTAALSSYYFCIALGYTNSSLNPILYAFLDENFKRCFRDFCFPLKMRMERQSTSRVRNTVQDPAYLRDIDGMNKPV", "test": "cell-based"}, "[5]": {"system": "OBX rats", "test": "Hyperemotional reaction inhibition test using olfactory bulbectomized (OBX) rat", "assay_type": "in vivo", "description": "According to the method of Saitoh et al. (Saitoh A, Yamada M, Yamada M, Takahashi K, Yamaguchi K, Murasawa H, Nakatani A, Tatsumi Y, Hirose N, and Kamei J: Antidepressant-like effects of the delta-opioid receptor agonist SNC80 ((+)-4-[(alphaR)-alpha-[(2S,5R)-2,5-dimethyl-4-(2-propenyl)-1-piperazinyl]-(3-methoxyphenyl)methyl]-N,N-diethylbenzamide) in an olfactory bulbectomized rat model, Brain Res., 2008, 1208160-169), OBX rats were prepared by extracting the rat olfactory bulbs, and then breeding the rats in an isolated circumstance. Hyperemotional reaction was evaluated on the day 14 after the surgical operation and before the division into groups, and 2 hours after the administration on the days 1, 4, 7, 10, and 14 of the administration period according to the hyperemotional reaction evaluation criteria prepared by Gomita et al. (Gomita et al., Behavioral pharmacological and electroencephalographical studies of 7-chloro-1-methyl-5-phenyl-1H-1,5-benzodiazepine-2,4-(3H,5H:)-dione (Clobazam), Folia Pharmacologica Japonica, 82, 267 (1983)). The drug was subcutaneously administered once a day continuously over 14 days. As a positive control drug, fluoxetine, which is a selective serotonin reuptake inhibitor (SSRI), was used. As the solvent, a 1% cyclodextrin (CD) was used."}, "[6]": {"system": "SD male rats", "test": "Rat cerebral infarction-induced overactive bladder model (cystometry)", "assay_type": "in vivo", "description": "A transient middle cerebral artery occlusion model was prepared by using 8 weeks old SD male rats under isoflurane inhalation anesthesia. On the next day, the cervix was slightly cut open again under the isoflurane inhalation anesthesia, and a catheter for administration was fixed in the jugular vein, and led to the back. A cystometry operation was also performed, and the other end of a cannula inserted into the bladder was led to the back, and connected to a cannula swivel.\nOn the day 4 after the cerebral ischemia operation, cystometry was performed under no anesthesia and with no restraint. Intravesical pressure was measured for the stable period, then a medium was intravenously administered, and the value of the pressure was measured over about 30 minutes as a value before test substance administration. Then, the test substance was cumulatively and intravenously administered from the lowest dose at intervals of about 30 minutes, and the value was measured for about 30 minutes after each administration. For the rats determined to show pollakiuria (urination interval was 10 minutes or shorter) in the measurement before the administration, static intravesical pressure, pressure at the time of urination, urination interval, and single urination amount were measured at each time point."}, "[7]": {"settings": "read-out: μ receptor Emax, starred: reaction rate at the maximum concentration (reference value)"}, "[8]": {"settings": "read-out: κ receptor Emax, starred: reaction rate at the maximum concentration (reference value)"}}, "note": "Counter-ions that a name gives are not always drawn. Like-named read-outs stand apart in the source and are kept apart here. Marks after values point to notes of the source that are not given here.", "data": [{"smiles": "O=C(c1cccc[n+]1[O-])N1C[C@H]2C[C@@]34CC[C@@H]1[C@@H]2[C@@]31CCN(CC2CC2)[C@@H]4Cc2ccc(O)cc21", "note": "[Example 1, 2-((1S,3aR,5aS,6R,11bR,11cS)-14-(cyclopropylmethyl)-10-hydroxy-2,3,3a,4,5,6,7,11c-octahydro-1H-6,11b-(epiminoethano)-1,5a-methanonaphtho[1,2-e]indole-3-carbonyl)pyridine 1-oxide]", "values": [{"measurement": "Emax", "setting": "[1]; [7]", "value": 8.3, "unit": "%"}, {"measurement": "hERG channel inhibitory action", "setting": "[2]", "value": "<50", "unit": "%"}]}, {"smiles": "O=C(c1ccc[nH]c1=O)N1C[C@H]2C[C@@]34CC[C@@H]1[C@@H]2[C@@]31CCN(CC2CC2)[C@@H]4Cc2ccc(O)cc21", "note": "[Example 3, 3-((1S,3aR,5aS,6R,11bR,11cS)-14-(cyclopropylmethyl)-10-hydroxy-2,3,3a,4,5,6,7,11c-octahydro-1H-6,11b-(epiminoethano)-1,5a-methanonaphtho[1,2-e]indole-3-carbonyl)pyridin-2(1H)-one]", "values": [{"measurement": "wall-less running route staying time ratio", "setting": "[3]", "value": "showed a tendency of increasing"}, {"measurement": "hERG channel inhibitory action", "setting": "[2]", "value": "<50", "unit": "%"}]}, {"smiles": "O=C(c1ccc[n+]([O-])c1)N1C[C@H]2C[C@@]34CC[C@@H]1[C@@H]2[C@@]31CCN(CC2CC2)[C@@H]4Cc2ccc(O)cc21", "note": "[Example 4, 3-((1S,3aR,5aS,6R,11bR,11cS)-14-(cyclopropylmethyl)-10-hydroxy-2,3,3a,4,5,6,7,11c-octahydro-1H-6,11b-(epiminoethano)-1,5a-methanonaphtho[1,2-e]indole-3-carbonyl)pyridine 1-oxide]", "values": [{"measurement": "Emax", "setting": "[1]; [7]", "value": 5.5, "unit": "%"}]}, {"smiles": "Cn1cccc(C(=O)N2C[C@H]3C[C@@]45CC[C@@H]2[C@@H]3[C@@]42CCN(CC3CC3)[C@@H]5Cc3ccc(O)cc32)c1=O", "note": "[Example 6, 3-((1S,3aR,5aS,6R,11bR,11cS)-14-(cyclopropylmethyl)-10-hydroxy-2,3,3a,4,5,6,7,11c-octahydro-1H-6,11b-(epiminoethano)-1,5a-methanonaphtho[1,2-e]indole-3-carbonyl)-1-methylpyridin-2(1H)-one]", "values": [{"measurement": "Emax", "setting": "[4]; [8]", "value": 3.2, "unit": "%"}]}, {"smiles": "O=C(c1cccc(=O)[nH]1)N1C[C@H]2C[C@@]34CC[C@@H]1[C@@H]2[C@@]31CCN(CC2CC2)[C@@H]4Cc2ccc(O)cc21", "note": "[Example 7, 6-((1S,3aR,5aS,6R,11bR,11cS)-14-(cyclopropylmethyl)-10-hydroxy-2,3,3a,4,5,6,7,11c-octahydro-1H-6,11b-(epiminoethano)-1,5a-methanonaphtho[1,2-e]indole-3-carbonyl)pyridin-2(1H)-one]", "values": [{"measurement": "Emax", "setting": "[4]; [8]", "value": -0.9, "unit": "%"}, {"measurement": "hERG channel inhibitory action", "setting": "[2]", "value": "<50", "unit": "%"}, {"measurement": "hyperemotional reactions compared with the sham surgery group", "setting": "[5]; 0.1 mg/kg s.c. once a day, on the day 7 of the administration period", "value": "restored the condition even to a level comparable to that of the rats of the sham surgery group"}, {"measurement": "hyperemotional reactions compared with the sham surgery group", "setting": "[5]; 1 mg/kg s.c. once a day, on the day 4 of the administration period", "value": "restored the condition even to a level comparable to that of the rats of the sham surgery group"}, {"measurement": "single urination amount (in words)", "setting": "[6]; 0.01 and 0.1 mg/kg i.v.", "value": "dose-dependently increasing tendency"}, {"measurement": "urination interval (in words)", "setting": "[6]; 0.01 and 0.1 mg/kg i.v.", "value": "dose-dependently increasing tendency"}, {"measurement": "pressure at the time of urination (in words)", "setting": "[6]; at all the doses", "value": "did not affect"}, {"measurement": "static intravesical pressure (in words)", "setting": "[6]; at all the doses", "value": "did not affect"}]}, {"smiles": "Cn1cc(C(=O)N2C[C@H]3C[C@@]45CC[C@@H]2[C@@H]3[C@@]42CCN(CC3CC3)[C@@H]5Cc3ccc(O)cc32)ccc1=O", "note": "[Example 9, 5-((1S,3aR,5aS,6R,11bR,11cS)-14-(cyclopropylmethyl)-10-hydroxy-2,3,3a,4,5,6,7,11c-octahydro-1H-6,11b-(epiminoethano)-1,5a-methanonaphtho[1,2-e]indole-3-carbonyl)-1-methylpyridin-2(1H)-one]", "values": [{"measurement": "Emax", "setting": "[1]; ratio to maximum reaction of control drug DAMGO taken as 100%, read-out: μ receptor Emax", "value": 16, "unit": "%"}, {"measurement": "wall-less running route staying time ratio", "setting": "[3]", "value": "showed a tendency of increasing"}, {"measurement": "hERG channel inhibitory action", "setting": "[2]", "value": "<50", "unit": "%"}]}, {"smiles": "Cn1c(C(=O)N2C[C@H]3C[C@@]45CC[C@@H]2[C@@H]3[C@@]42CCN(CC3CC3)[C@@H]5Cc3ccc(O)cc32)cccc1=O", "note": "[Example 10, 6-((1S,3aR,5aS,6R,11bR,11cS)-14-(cyclopropylmethyl)-10-hydroxy-2,3,3a,4,5,6,7,11c-octahydro-1H-6,11b-(epiminoethano)-1,5a-methanonaphtho[1,2-e]indole-3-carbonyl)-1-methylpyridin-2(1H)-one]", "values": [{"measurement": "Emax", "setting": "[1]; [7]", "value": 6, "unit": "%"}, {"measurement": "Emax", "setting": "[4]; [8]", "value": -0.7, "unit": "%"}, {"measurement": "wall-less running route staying time ratio", "setting": "[3]", "value": "showed a tendency of increasing"}, {"measurement": "hERG channel inhibitory action", "setting": "[2]", "value": "<50", "unit": "%"}]}, {"smiles": "O=C(c1cc[nH]c(=O)c1)N1C[C@H]2C[C@@]34CC[C@@H]1[C@@H]2[C@@]31CCN(CC2CC2)[C@@H]4Cc2ccc(O)cc21", "note": "[Example 11, 4-((1S,3aR,5aS,6R,11bR,11cS)-14-(cyclopropylmethyl)-10-hydroxy-2,3,3a,4,5,6,7,11c-octahydro-1H-6,11b-(epiminoethano)-1,5a-methanonaphtho[1,2-e]indole-3-carbonyl)pyridin-2(1H)-one]", "values": [{"measurement": "Emax", "setting": "[4]; [8]", "value": -2.5, "unit": "%"}]}, {"smiles": "O=C(c1cc(=O)cc[nH]1)N1C[C@H]2C[C@@]34CC[C@@H]1[C@@H]2[C@@]31CCN(CC2CC2)[C@@H]4Cc2ccc(O)cc21", "note": "[Example 14, 2-((1S,3aR,5aS,6R,11bR,11cS)-14-(cyclopropylmethyl)-10-hydroxy-2,3,3a,4,5,6,7,11c-octahydro-1H-6,11b-(epiminoethano)-1,5a-methanonaphtho[1,2-e]indole-3-carbonyl)pyridin-4(1H)-one]", "values": [{"measurement": "Emax", "setting": "[4]; [8]", "value": 6.7, "unit": "%"}]}, {"smiles": "O=C(c1cc(=O)cco1)N1C[C@H]2C[C@@]34CC[C@@H]1[C@@H]2[C@@]31CCN(CC2CC2)[C@@H]4Cc2ccc(O)cc21", "note": "[Example 19, 2-((1S,3aR,5aS,6R,11bR,11cS)-14-(cyclopropylmethyl)-10-hydroxy-2,3,3a,4,5,6,7,11c-octahydro-1H-6,11b-(epiminoethano)-1,5a-methanonaphtho[1,2-e]indole-3-carbonyl)-4H-pyran-4-one]", "values": [{"measurement": "Emax", "setting": "[4]; [8]", "value": 0.6, "unit": "%"}]}, {"smiles": "CCn1cc(C(=O)N2C[C@H]3C[C@@]45CC[C@@H]2[C@@H]3[C@@]42CCN(CC3CC3)[C@@H]5Cc3ccc(O)cc32)ccc1=O", "note": "[Example 28, 5-((1S,3aR,5aS,6R,11bR,11cS)-14-(cyclopropylmethyl)-10-hydroxy-2,3,3a,4,5,6,7,11c-octahydro-1H-6,11b-(epiminoethano)-1,5a-methanonaphtho[1,2-e]indole-3-carbonyl)-1-ethylpyridin-2(1H)-one]", "values": [{"measurement": "Emax", "setting": "[4]; read-out: κ receptor Emax", "value": 13, "unit": "%"}]}, {"smiles": "Cn1cccc(C(=O)N2C[C@H]3C[C@@]45CC[C@@H]2[C@@H]3[C@@]42CCN(CC3CC3)[C@@H]5Cc3ccc(O)cc32)c1=O", "note": "[Example 31, 3-((1S,3aR,5aS,6R,11bR,11cS)-14-(cyclopropylmethyl)-10-hydroxy-2,3,3a,4,5,6,7,11c-octahydro-1H-6,11b-(epiminoethano)-1,5a-methanonaphtho[1,2-e]indole-3-carbonyl)-1-methylpyridin-2(1H)-one hydrochloride]", "values": [{"measurement": "Emax", "setting": "[4]; maximum reaction not reached, at maximum concentration (10 μM), U-69593 = 100%", "value": "3.2* %"}]}]}
